Measurements taken from US6495606B1, “Nitric oxide synthase inhibitors” (SmithKline Beecham Corporation, priority 1998, dated 2002).

Experiments:
human iNOS = biological target: T1, human iNOS (Homo sapiens, UniProt P35228); experiment: Inhibition of isolated human iNOS; type: biochemical; details: purified human iNOS, haemoglobin absorption assay
T1 construct: made in house
From the text: 1. Inhibition of Isolated Human iNOS
The inhibition of purified human iNOS may be determined using a preparation of human iNOS as described in the chapter “Expression if Human Nitric Oxide Synthase Isozymes” by Charles et al in Methods in Enzymology, 1996 Volume 268, 449-460. Activity may be monitored using quantitative absorption changes of haemoglobin as described by R. G. Knowles and J. Dawson in “A Microtitreplate Assay of Human NOS Isoforms” in Methods in Molecular Biology, 1998, Volume 100, 237-242, Nitric Oxide Protocols, Ed M. A. Titheradge, Humana Press, Totowa N.J.

eNOS = biological target: T2, eNOS (Rattus norvegicus, UniProt Q62600); experiment: Inhibition of eNOS in situ in rat aortic rings (basal tone, intact endothelium, ring tension); type: cell-based; details: rat aortic rings with intact endothelium, threshold phenylephrine
T2 construct: from tissue; host or cells: rat thoracic aorta rings with intact endothelium
Procedure: (§1) 2. Inhibition of eNOS and INOS in Rat Aortic Rings
(§2) The inhibition of eNOS and iNOS in situ in rat aortic rings was assessed by measuring the increases in ring tension caused by NO synthase inhibition. For studies of basal tone (reflecting eNOS), rings of thoracic aorta with intact endothelium were prepared as described previously (Rees et at. (1989) Br. J. Pharmol. 96, 418-424) and cumulative concentration curves obtained for the inhibitors in the presence of a threshold concentration of phenylephrine (ED10≈10 nM). For studies of induced smooth muscle tone (reflecting iNOS), endothelium-denuded rings were exposed to LPS (0.1 μg/ml from S. typhosa) in the presence of phenylephrine at approximately ED90 for 6 h as described previously (Rees et al. (1990) Biochem. Biophys. Res. Commun. 173, 541-547). During this time a progressive loss of tone occurred because of iNOS induction. Cumulative concentration curves were then obtained for the inhibitors.

iNOS = biological target: T3, iNOS (Rattus norvegicus, UniProt Q06518); experiment: Inhibition of iNOS in situ in rat aortic rings (LPS-induced, endothelium-denuded, ring tension); type: cell-based
T3 construct: endothelium-denuded rings were exposed to LPS; from tissue; host or cells: rat thoracic aorta rings, endothelium-denuded, LPS-treated
Procedure: as §1, §2

nNOS = biological target: T4, nNOS (Rattus norvegicus, UniProt P29476); experiment: Inhibition of nNOS in rat cortical slices (14C-arginine to 14C-citrulline); type: cell-based
T4 construct: rat cerebral cortex slices; from tissue; host or cells: rat cerebral cortex slices (McIlwain-chopped)
Procedure: 3. Inhibition of nNOS in Rat Cortical Slices
The effects of compounds on nNOS in rat brain slices was determined as described in Furfine et al (1994) J. Biol. Chem. 269, 26677-26683 and Lizasoain et al (1995) J. Neurochem. 64, 636-642. KCl (54 mM)—stimulated NO synthesis was measured by the conversion of 14C-arginine to 14C-citrulline over a 2 h period at 37° C. in Mcllwain—chopped (0.2 mm ×0.2 mm) rat cerebral cortex slices, following a 1 h preincubation period in the absence of compound or high KCl.

[1] = Oral bioavailability and pharmacokinetics in rats; type: in vivo, rat
Procedure: 4. Method for Determining the Oral Bioavailability of iNOS Inhibitor Compounds
Rats (3 animals per time point) were dosed intravenously (10 mg/kg) and orally (50 mg/kg) with test compound in an aqueous solution. Blood samples were taken at time intervals after administration and plasma prepared by centrifugation. Samples were stored at −20° C. until analysis.
Plasma (50 μl) was de-proteinated and compound derivatised with a quaternary ammonium reagent. Samples were then injected onto an HPLC system and compound concentration determined using mass spectrometric detection.
The plasma concentrations obtained by the above method were entered into a pharmacokinetic software package (PKCAL v 1.2s) and the data were fitted using a non-compartmental method. The oral bioavailability of the compounds was determined by comparing the Area Under the Curve (AUC) values calculated by the software for the oral profile with the AUC for the intravenous profile. The half-lives were obtained by fitting the terminal phase time points of the intravenous profile.

T1 sequence (P35228 whole entry): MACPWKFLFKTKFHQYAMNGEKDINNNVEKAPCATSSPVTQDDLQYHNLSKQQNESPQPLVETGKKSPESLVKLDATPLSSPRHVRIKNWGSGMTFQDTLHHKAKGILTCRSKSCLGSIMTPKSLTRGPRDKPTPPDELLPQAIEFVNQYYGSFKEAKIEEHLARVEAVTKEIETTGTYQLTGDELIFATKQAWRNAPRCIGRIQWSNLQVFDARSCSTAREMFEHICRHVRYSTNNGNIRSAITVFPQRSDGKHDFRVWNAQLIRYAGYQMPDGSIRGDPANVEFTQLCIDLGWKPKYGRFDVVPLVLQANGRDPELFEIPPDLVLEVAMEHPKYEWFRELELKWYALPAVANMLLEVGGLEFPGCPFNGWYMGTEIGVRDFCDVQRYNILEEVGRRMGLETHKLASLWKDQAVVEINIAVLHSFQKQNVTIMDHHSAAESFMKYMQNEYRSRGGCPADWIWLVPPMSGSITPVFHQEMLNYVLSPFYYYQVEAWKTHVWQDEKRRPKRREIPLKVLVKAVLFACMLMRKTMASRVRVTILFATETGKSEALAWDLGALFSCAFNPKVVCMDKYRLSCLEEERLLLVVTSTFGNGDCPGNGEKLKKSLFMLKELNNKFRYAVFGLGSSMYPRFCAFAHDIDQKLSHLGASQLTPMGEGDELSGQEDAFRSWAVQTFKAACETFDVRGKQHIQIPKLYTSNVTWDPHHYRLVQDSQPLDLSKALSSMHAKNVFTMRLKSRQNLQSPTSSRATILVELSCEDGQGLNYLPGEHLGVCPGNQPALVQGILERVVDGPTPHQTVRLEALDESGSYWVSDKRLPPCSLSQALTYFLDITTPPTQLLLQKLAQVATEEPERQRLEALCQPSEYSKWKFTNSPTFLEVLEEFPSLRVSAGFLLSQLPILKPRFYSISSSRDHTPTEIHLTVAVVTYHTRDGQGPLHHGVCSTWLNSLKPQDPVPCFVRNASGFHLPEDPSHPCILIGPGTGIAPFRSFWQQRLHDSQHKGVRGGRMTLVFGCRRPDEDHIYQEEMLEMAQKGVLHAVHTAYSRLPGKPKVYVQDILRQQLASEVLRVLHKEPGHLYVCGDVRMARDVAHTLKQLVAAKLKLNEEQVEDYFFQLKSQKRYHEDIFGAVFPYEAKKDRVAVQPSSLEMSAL
T4 sequence (P29476 whole entry): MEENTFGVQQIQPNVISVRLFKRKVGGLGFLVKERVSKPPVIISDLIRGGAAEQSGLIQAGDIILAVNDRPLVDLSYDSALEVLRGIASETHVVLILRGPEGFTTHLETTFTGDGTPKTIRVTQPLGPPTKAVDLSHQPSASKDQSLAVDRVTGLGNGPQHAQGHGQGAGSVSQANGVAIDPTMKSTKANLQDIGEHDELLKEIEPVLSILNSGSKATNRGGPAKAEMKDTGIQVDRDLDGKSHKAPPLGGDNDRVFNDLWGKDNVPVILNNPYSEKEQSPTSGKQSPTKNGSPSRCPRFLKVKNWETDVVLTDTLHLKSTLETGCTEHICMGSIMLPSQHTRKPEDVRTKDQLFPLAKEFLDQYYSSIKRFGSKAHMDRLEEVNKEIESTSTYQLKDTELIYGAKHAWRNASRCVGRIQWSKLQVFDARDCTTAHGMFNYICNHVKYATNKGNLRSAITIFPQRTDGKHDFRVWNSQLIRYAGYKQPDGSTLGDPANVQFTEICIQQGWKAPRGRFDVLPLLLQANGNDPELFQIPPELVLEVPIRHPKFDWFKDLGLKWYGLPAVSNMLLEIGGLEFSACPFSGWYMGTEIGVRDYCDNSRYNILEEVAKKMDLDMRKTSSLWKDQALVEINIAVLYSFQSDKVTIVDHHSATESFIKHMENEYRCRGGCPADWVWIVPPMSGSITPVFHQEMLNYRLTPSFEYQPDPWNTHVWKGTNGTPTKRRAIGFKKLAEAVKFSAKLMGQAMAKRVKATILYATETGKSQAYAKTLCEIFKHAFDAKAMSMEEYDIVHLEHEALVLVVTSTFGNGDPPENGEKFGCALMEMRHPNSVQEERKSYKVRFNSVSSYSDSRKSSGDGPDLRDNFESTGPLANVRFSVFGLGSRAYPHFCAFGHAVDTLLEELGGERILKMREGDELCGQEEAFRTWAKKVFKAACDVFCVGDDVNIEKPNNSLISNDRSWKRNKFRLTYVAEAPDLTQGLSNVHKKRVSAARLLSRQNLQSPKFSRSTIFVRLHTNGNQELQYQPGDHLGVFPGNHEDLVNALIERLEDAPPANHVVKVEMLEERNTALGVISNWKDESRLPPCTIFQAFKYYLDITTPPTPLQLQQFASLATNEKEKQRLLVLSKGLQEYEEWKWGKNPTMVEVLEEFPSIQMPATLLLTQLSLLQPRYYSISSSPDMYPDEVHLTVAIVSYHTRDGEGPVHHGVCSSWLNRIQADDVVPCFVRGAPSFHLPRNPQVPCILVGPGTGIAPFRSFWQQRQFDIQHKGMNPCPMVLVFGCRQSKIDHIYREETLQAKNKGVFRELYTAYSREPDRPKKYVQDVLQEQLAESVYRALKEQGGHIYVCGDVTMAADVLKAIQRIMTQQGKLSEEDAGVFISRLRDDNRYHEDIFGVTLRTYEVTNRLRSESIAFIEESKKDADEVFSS
T3 sequence (Q06518 whole entry): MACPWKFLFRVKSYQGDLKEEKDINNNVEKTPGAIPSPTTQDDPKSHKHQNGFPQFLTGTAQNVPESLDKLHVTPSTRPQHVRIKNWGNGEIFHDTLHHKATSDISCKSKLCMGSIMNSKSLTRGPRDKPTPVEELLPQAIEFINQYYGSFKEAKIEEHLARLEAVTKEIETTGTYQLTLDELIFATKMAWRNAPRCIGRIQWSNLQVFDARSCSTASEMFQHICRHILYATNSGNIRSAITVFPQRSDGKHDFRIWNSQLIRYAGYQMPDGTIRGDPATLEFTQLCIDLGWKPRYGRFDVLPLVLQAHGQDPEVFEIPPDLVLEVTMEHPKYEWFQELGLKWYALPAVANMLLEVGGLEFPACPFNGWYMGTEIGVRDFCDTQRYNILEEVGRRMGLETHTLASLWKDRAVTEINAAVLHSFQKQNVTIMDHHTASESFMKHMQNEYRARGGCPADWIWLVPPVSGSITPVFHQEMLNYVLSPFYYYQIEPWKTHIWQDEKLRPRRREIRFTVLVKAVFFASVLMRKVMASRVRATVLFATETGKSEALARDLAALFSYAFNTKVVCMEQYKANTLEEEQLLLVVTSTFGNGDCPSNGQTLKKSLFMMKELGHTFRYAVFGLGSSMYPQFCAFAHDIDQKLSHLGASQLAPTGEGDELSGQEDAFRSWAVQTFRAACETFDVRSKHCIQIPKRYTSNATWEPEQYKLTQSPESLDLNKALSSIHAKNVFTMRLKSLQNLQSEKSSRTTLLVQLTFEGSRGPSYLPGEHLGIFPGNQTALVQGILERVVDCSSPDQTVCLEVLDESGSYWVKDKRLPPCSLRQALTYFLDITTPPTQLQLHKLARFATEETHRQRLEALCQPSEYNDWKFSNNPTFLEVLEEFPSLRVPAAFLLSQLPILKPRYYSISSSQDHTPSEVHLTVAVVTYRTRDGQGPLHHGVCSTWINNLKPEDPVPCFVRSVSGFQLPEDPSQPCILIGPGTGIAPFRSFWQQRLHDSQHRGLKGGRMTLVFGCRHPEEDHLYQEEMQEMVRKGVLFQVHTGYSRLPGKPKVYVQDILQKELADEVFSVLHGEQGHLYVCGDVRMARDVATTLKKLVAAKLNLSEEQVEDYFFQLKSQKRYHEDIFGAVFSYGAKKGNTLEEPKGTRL
T2 sequence (Q62600 2-1202): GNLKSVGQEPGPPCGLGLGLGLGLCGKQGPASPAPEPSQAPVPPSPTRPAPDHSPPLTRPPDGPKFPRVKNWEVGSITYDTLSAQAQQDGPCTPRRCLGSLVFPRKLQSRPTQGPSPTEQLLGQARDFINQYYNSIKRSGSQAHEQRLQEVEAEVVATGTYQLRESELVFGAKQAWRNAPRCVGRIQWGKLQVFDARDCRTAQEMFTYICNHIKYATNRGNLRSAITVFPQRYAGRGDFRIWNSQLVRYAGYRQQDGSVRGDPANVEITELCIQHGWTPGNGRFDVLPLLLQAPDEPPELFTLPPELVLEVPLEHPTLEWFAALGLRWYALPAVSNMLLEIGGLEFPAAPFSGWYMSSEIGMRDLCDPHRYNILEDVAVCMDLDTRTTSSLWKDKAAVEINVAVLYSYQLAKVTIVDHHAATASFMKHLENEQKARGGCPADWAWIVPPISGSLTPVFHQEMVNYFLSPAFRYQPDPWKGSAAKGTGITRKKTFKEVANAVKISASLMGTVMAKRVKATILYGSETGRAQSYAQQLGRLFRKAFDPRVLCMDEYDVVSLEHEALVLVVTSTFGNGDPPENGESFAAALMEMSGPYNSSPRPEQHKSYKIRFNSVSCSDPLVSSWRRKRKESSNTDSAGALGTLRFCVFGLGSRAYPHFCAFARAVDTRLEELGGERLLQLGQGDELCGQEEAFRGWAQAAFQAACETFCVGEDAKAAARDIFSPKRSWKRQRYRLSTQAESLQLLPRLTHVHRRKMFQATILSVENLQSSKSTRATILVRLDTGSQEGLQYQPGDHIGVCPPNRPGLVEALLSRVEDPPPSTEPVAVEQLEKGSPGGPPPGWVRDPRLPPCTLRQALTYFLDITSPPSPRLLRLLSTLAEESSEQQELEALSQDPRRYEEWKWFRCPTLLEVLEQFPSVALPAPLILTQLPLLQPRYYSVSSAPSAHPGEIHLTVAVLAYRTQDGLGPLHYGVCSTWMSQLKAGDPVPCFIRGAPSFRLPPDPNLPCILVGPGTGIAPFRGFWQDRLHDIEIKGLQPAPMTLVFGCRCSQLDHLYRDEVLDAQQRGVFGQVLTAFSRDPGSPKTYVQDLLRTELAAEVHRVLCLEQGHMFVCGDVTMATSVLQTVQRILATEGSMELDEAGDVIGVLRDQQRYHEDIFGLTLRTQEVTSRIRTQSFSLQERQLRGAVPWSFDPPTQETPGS

## S-[(R)-2-(1-Iminoethylamino)propyl]-D-cysteine Dihydrochloride [Example 4]
Human iNOS
  IC50: 48 µM

## S-[(R)-2-(1-Iminoethylamino)propyl]-L-cysteine Dihydrochloride [Example 1]
eNOS
  IC50: > 20 µM
iNOS
  selectivity iNOS vs eNOS: >75
iNOS; endothelium-denuded, LPS 0.1 μg/ml 6 h, phenylephrine approx. ED90
  IC50: 260 nM
nNOS; rat cerebral cortex slices, KCl (54 mM)-stimulated NO synthesis, 2 h, 37° C.
  IC50: > 80 µM
nNOS; rat tissue assays
  selectivity for iNOS versus nNOS: > 300 fold
[1]; intravenous 10 mg/kg, terminal phase
  half-life: 2 to 4 h
[1]; oral 50 mg/kg vs intravenous 10 mg/kg, AUC comparison
  oral bioavailability: > 90%
Human iNOS
  IC50: 2 µM

## S-[(R/S)-2-(1-Iminoethylamino, 2-Cyclopropyl)ethyl]-L-cysteine Dihydrochloride [Example 7]
Human iNOS
  IC50: 6.2 µM

## S-[(S)-2-(1-Iminoethylamino)propyl]-D-cysteine Dihydrochloride [Example 3]
Human iNOS
  IC50: 6.6 µM

## S-[(S)-2-(1-Iminoethylamino)propyl]-L-cysteine Dihydrochloride [Example 2]
Human iNOS
  IC50: 39 µM
